In PubChem BioAssay AID652053 (Broad Institute, 2013):

System: Huh7 psiCHECK-miR122 Renilla luciferase reporter, 48 h
Assay: miR-122 inhibitors in Huh7 reporter cells, dose response, cell-based, Huh7 psiCHECK-miR122, Renilla luciferase, cherry-pick (AID 652053)

| Compound | AC40 [µM] |
| --- | --- |
| CCCCOc1ccc(S(=O)(=O)Nc2ccc(NC(C)=O)cc2)cc1 | 10.3 |
| C[C@H]1CN([C@@H](C)CO)C(=O)c2cccc(NC(=O)C3CCCCC3)c2O[C@@H]1CN(C)Cc1ccc(C(F)(F)F)cc1 | 0.547 |
| CCOc1cc(C)c(C(C)C)cc1S(=O)(=O)n1ccc(C)n1 | 7.45 |
| CCOc1ccc(Br)cc1S(=O)(=O)Nc1cccc(S(=O)(=O)N(C)c2ccccc2)c1 | 3.18 |
| COc1ccccc1NS(=O)(=O)c1cc(NC(=O)c2cccs2)ccc1N1CCOCC1 | 0.895 |
| C[C@@H]1CN([C@H](C)CO)S(=O)(=O)c2ccc(-c3ccc(F)cc3)cc2O[C@@H]1CN(C)Cc1ccccc1C(=O)O | 5.45 |
| COc1ccc(NS(=O)(=O)c2cc(NC(=O)c3ccco3)ccc2N2CCCCC2)cc1 | < 0.26 |
| Cc1ccc(S(=O)(=O)NC23CC4CC(CC(C4)C2)C3)cc1 | 2.15 |
| O=C1c2ccccc2C2=Nc3ccccc3SC(c3ccccc3F)C12 (stereo not given) | 21 |
| C[C@H](CO)N1C[C@H](C)[C@@H](CN(C)Cc2ccc(C(F)(F)F)cc2)Oc2c(NC(=O)c3nc4ccccc4s3)cccc2C1=O | 2.32 |
| O=S(=O)(NCCC1=CCCCC1)c1ccccc1Cl | 3.9 |
| COc1ccc(OC)c(C(c2nnnn2C2CCCC2)N2CCN(c3ccccc3F)CC2)c1 (stereo not given) | 12.3 |
| CCN(CC)S(=O)(=O)c1cc(C(=O)N(C)CC(=O)Nc2ccc(Cl)cc2)ccc1Cl | 13.9 |
| O=C(NC(=S)Nc1ccc(S(=O)(=O)NC2CCCCC2)cc1)c1cccs1 | 0.715 |
| CCOc1cc(C)c(Cl)cc1S(=O)(=O)NCC1CCCO1 (stereo not given) | 1.2 |
| COc1ccccc1NS(=O)(=O)c1cc(N/C(=N/S(=O)(=O)c2ccccc2)c2ccc(F)cc2)ccc1Cl | 3.27 |
| O=C1NC(=O)C(CCc2ccncc2)(Cc2cccc(Cl)c2Cl)C(=O)N1c1ccc(Br)cc1 (stereo not given) | 2.98 |
| CCc1c(C(=O)Nc2ccc(OC)cc2)[nH]c(C)c1C(C)=O | 5.6 |
| Cc1ccc(C(=O)Nc2ccc(C)c(S(=O)(=O)Nc3ccccc3Cl)c2)s1 | 3.03 |
| Cc1ccc(C(=O)NCCSc2ccc(Cl)cc2)cc1S(=O)(=O)Nc1ccccc1 | 4.3 |
| COc1ccc(-c2c(O)c(C#N)c(-c3ccccc3)n(-c3ccc(OC)cc3)c2=O)cc1 | 20 |
| O=C(Nc1cc(S(=O)(=O)Nc2ccccc2F)ccc1Cl)c1ccc(F)cc1F | 7.6 |
| CC(C)c1ccc(NC(=O)Cc2cn(C)c3ccccc23)cc1 | 11.9 |
| C[C@H]1CN([C@@H](C)CO)S(=O)(=O)c2ccc(C#CCN(C)C)cc2O[C@@H]1CN(C)Cc1ccc2c(c1)OCO2 | 3.68 |
| COc1cc(C)c(C(C)C)cc1S(=O)(=O)NC1CC(C)(C)NC(C)(C)C1 | 0.59 |

| Compound | AC40 [µM] |
| --- | --- |
| Cc1nc2ccc(S(=O)(=O)Nc3ccccc3C)cc2s1 | 22.2 |
| CC(C)CC(=O)Nc1cccc(-c2nc3ccccc3[nH]2)c1 | 15.6 |
| CCOc1ccc(-c2cc(N)n(S(=O)(=O)c3ccc(OC)c(OC)c3)n2)cc1 | 4.11 |
| O=S(=O)(NC1CCCCC1)c1cccc(-c2nnc(-c3ccccc3)o2)c1 | 2.16 |
| O=C(Nc1nc2ccc(Cl)cc2s1)c1ccco1 | 20.8 |
| Cc1ccc(-c2cc(C(=O)NCCCn3ccnc3)c3ccccc3n2)s1 | 11.1 |
| COc1cc(S(=O)(=O)NC2CCCCC2)c(C)cc1C | 0.686 |
| COc1ccc(C(=O)N2C[C@H]3[C@@H](c4ccccc42)[C@@H](CO)N3C(=O)c2ccc(F)cc2)cc1 | 0.631 |
| O=C(NC1CCCC1)C(c1ccccc1F)N(C(=O)Cc1cccs1)c1ccc2c(c1)OCCO2 (stereo not given) | 25.9 |
| O=S(=O)(Nc1ccc(Cl)cc1)c1cccc2nsnc12 | 14.8 |
| COc1ccc(OC)c(S(=O)(=O)Nc2cccc(-c3ccc4nncn4n3)c2)c1 | 2.4 |
| COc1ccc(S(=O)(=O)N(C)C[C@H]2Oc3cc(C#CC4CCCC4)ccc3S(=O)(=O)N([C@H](C)CO)C[C@@H]2C)cc1 | 1.58 |
| O=C(NNS(=O)(=O)c1ccc(Cl)cc1)c1cccs1 | 16.6 |
| C[C@H](CO)N1C[C@H](C)[C@@H](CN(C)Cc2ccc(C(F)(F)F)cc2)Oc2c(NC(=O)c3cnccn3)cccc2C1=O | 1.43 |
| COc1ccc(S(=O)(=O)NCc2ccco2)c2ccccc12 | 2.62 |
| COc1ccc(S(=O)(=O)NC2CCCCC2)c(C)c1C | 1.57 |
| COc1ccc(S(=O)(=O)N(C)C[C@H]2Oc3ccc(NC(=O)Nc4ccc(F)cc4)cc3C(=O)N([C@H](C)CO)C[C@H]2C)cc1 | 0.631 |
| Cc1cccc(NS(=O)(=O)c2ccc(C3CCCCC3)cc2)c1 | 13.2 |
| COc1cc(NS(=O)(=O)c2ccc(Br)s2)cc(OC)c1 | 5.31 |
| CCc1ccc(OC)c(S(=O)(=O)Nc2ccccc2C)c1 | 1.03 |
| Cc1ccc(S(=O)(=O)Nc2ccc(-n3cnnn3)cc2)c(C)c1 | 0.759 |
| O=C(NCC1CCCO1)C(c1cccs1)N(Cc1cccs1)C(=O)Cn1nnc(-c2cccs2)n1 (stereo not given) | 13.5 |
| COc1ccc(Br)cc1S(=O)(=O)N1CCN=C1c1ccccc1 | 9.26 |
| CCOc1ccc(NS(=O)(=O)c2ccc(NC(=S)NC(=O)C(C)C)cc2)cc1 | 5.48 |
| CC(=O)c1cccc(NS(=O)(=O)c2cc(-c3cnc(C4CC4)o3)ccc2C)c1 | 6.63 |

| Compound | AC40 [µM] |
| --- | --- |
| C[C@H]1CN([C@@H](C)CO)C(=O)c2cccc(NC(=O)Nc3ccc(C(F)(F)F)cc3)c2O[C@@H]1CN(C)CC1CCCCC1 | 3.47 |
| Cc1ccc(C(=O)Nc2ccccc2-c2ccccc2)cc1S(=O)(=O)Nc1ccccc1 | 3.64 |
| Cc1cc(C(C)(C)C)cc(S(=O)(=O)Nc2ccc(C(=O)O)cc2)c1C | 9.72 |
| O=S(=O)(NCC1CCCO1)c1ccc(Cl)c(C(F)(F)F)c1 (stereo not given) | 7.84 |
| O=C(NCCCn1ccnc1)c1cc(-c2ccccc2)on1 | 28.8 |
| C[C@H](CO)N1C[C@H](C)[C@@H](CN(C)Cc2ccc(C(F)(F)F)cc2)Oc2c(NC(=O)C3CCCCC3)cccc2C1=O | 0.596 |
| Cc1cc(C)cc(NS(=O)(=O)c2ccc3c(c2)C(C)(C)C(=O)N3C)c1 | 1.21 |
| Cc1cccc(NS(=O)(=O)c2cccc(C(=O)N3CCCCCCC3)c2)c1 | 1.8 |
| Cc1ccc(-c2cnc(C3CC3)o2)cc1S(=O)(=O)Nc1ccccc1 | 3.08 |
| C[C@H](CO)N1C[C@H](C)[C@H](CN(C)Cc2ccc(C(=O)Nc3ccccc3N)cc2)Oc2ccc(NS(=O)(=O)c3ccc(Cl)cc3)cc2CC1=O | 7.89 |
| Cc1ccc(S(=O)(=O)NC2CCCCCC2)cc1 | 2.92 |
| O=S(=O)(NCCC1=CCCCC1)c1ccccc1Br | 2.03 |
| FC(F)Sc1ccc(NC(=S)NC2CCCCC2)cc1 | 4.16 |
| COc1ccc(CN(C)C[C@H]2Oc3c(NC(=O)NC4CCCCC4)cccc3C(=O)N([C@H](C)CO)C[C@@H]2C)cc1 | 5.06 |
| Cc1ccc(C2c3c(-c4ccccc4O)n[nH]c3C(=O)N2Cc2ccncc2)cc1 (stereo not given) | 8.08 |
| Cc1ccc(S(=O)(=O)c2cccc(S(=O)(=O)N3CCCC3)c2)cc1S(=O)(=O)N1CCCC1 | 9.91 |
| Cc1cc(C)c(C)c(S(=O)(=O)Nc2ccc3cn[nH]c3c2)c1C | 0.694 |
| Cc1ccc(C)c(S(=O)(=O)Nc2ccc(C(=O)N3CCC3)cc2)c1 | 2.82 |
| Cc1cccc(S(=O)(=O)NC2CCCCCCC2)c1 | 3.27 |
| Cc1cc(C)c(S(=O)(=O)NC2CC3CCC2C3)c(C)c1 (stereo not given) | 0.6 |
| O=C(Nc1ccccc1)c1ccc(NC2CCCCC2)c(S(=O)(=O)N2CCOCC2)c1 | 13.9 |
| CCCNC(=O)C[C@@H]1CC[C@H]2[C@H](COc3ccc(NC(=O)c4ccc5c(c4)OCO5)cc3C(=O)N2C)O1 | 2.21 |
| C[C@@H]1CN([C@H](C)CO)C(=O)c2cccc(NS(=O)(=O)c3cccs3)c2O[C@H]1CN(C)Cc1ccc(C(F)(F)F)cc1 | 1.6 |
| COc1ccc(NS(=O)(=O)c2cc(NC(=O)[C@@H](NC(=O)c3ccccc3)C(C)C)ccc2C)cc1 | 2.3 |
| COc1ccc(NS(=O)(=O)c2cc(NC(=O)Cc3c(F)cccc3Cl)ccc2OC)cc1 | 3.67 |

| Compound | AC40 [µM] |
| --- | --- |
| COc1ccc(NS(=O)(=O)c2cc(NC(=O)c3cnccn3)ccc2N2CCCC2)cc1 | 3.27 |
| CCCNC(=O)NC[C@@H]1[C@@H](c2ccc(C3=CCCCC3)cc2)[C@H](CO)N1C(C)=O | 2.47 |
| O=C(N/N=C/c1cccs1)C(O)c1ccccc1 (stereo not given) | 15.2 |
| COc1cccc(C2(c3cccc(OC)c3)CC2C(=O)Nc2ccc(F)cc2)c1 (stereo not given) | 2.68 |
| COc1ccc(S(=O)(=O)Nc2cc(C)c(O)c(S(=O)(=O)c3ccccc3)c2)cc1 | 29.6 |
| COc1ccccc1NS(=O)(=O)c1cc(NC(=O)c2cccnc2)ccc1N1CCCCC1 | < 0.26 |
| COc1cccc(N2CCN(C(=O)c3oc4ccccc4c3NC(=O)CCc3cc(OC)no3)CC2)c1 | 1.31 |
| O=C(N/N=C/c1ccc(Cl)s1)C(O)c1ccccc1 (stereo not given) | 1.17 |
| Cc1cc(C)nc(N/C(=N\S(=O)(=O)Cc2ccccc2)Nc2ccccc2Br)n1 | 8.51 |
| O=C(Nc1cccc(S(=O)(=O)Nc2ccc(Cl)cc2)c1)c1ccccn1 | 1.8 |
| CC(=O)N1CCOc2ccc(S(=O)(=O)NCCc3ccc(Cl)cc3)cc21 | 5.14 |
| COc1ccc(NC(=O)C2CCC2)cc1S(=O)(=O)Nc1cc(C)ccc1Br | 0.985 |
| Cc1ccc(C(C)(C)C)cc1S(=O)(=O)Nc1cccc(S(=O)(=O)NC2=NCCC2)c1 | 5.86 |
| CCOc1ccccc1NC(=O)Cn1nnc(C(=O)NCc2cccs2)c1N | 5.91 |
| CN1c2ccc(-c3cccc(F)c3)cc2[C@H]2[C@H](CCN2S(=O)(=O)c2cccc(F)c2)[C@H]1CO | 6.4 |
| C[C@H](CO)N1C[C@H](C)[C@@H](CN(C)CC2CC2)Oc2c(NC(=O)C3CC3)cccc2C1=O | 22.2 |
| Cc1noc(C)c1S(=O)(=O)N(C)C[C@@H]1Oc2c(NC(=O)c3cnccn3)cccc2C(=O)N([C@@H](C)CO)C[C@@H]1C | 5.81 |
| O=S(Cc1ccc(Cl)cc1)CC(O)(c1ccccc1)c1ccccc1 (stereo not given) | 18.1 |
| CCOCC(=O)Nc1c(C(=O)N2CCN(c3ncccn3)CC2)oc2ccccc12 | 0.431 |
| CCCC#Cc1ccc2c(c1)O[C@H](CN(C)C(=O)c1ccccn1)[C@@H](C)CN([C@H](C)CO)S2(=O)=O | 11.3 |
| COc1cc(S(=O)(=O)N2CCCCCC2)c(OC)cc1Br | 1.74 |
| COc1c(S(=O)(=O)NCCCn2ccnc2)ccc(Cl)c1Cl | 21.3 |
| C[C@H]1CN([C@@H](C)CO)C(=O)c2cccc(NC(=O)C3CCOCC3)c2O[C@@H]1CN(C)Cc1ccc(C(F)(F)F)cc1 | 1.51 |
| OC(c1cc(Cl)cc(Cl)c1)c1ncc(-c2ccccc2F)[nH]1 (stereo not given) | 3.84 |
| COc1ccc(NC(=O)CCNS(=O)(=O)c2cc(Br)ccc2Br)cc1S(N)(=O)=O | 2.1 |
